Assay results: patent US11339168B2, “Crystalline forms of 6-(6-aminopyrazin-2-yl)-N-(4-(4-(oxetan-3-yl)piperazin-1-yl)phenyl)imidazo[1,2-a]pyrazin-8-amine as Syk inhibitors” (Kronos Bio, Inc., priority 2019, dated 2022)
Counter-ions that a name gives are not always drawn.

Test: Hygroscopicity by dynamic vapor sorption (DVS)
Format: physicochemical
Details: for water absorbed (DVS): 25° C. and 95% RH; for hygroscopicity (DVS analysis), in words: 25° C.
Procedure: Hygroscopicity was studied using dynamic vapor sorption (DVS, TA Q5000 SA, TA Instruments, New Castle, Del. or DVS, DVS Intrinsic, Surface Measurement Systems, London, UK). A sample (2-20 mg) was placed in an aluminum DVS pan and loaded on the sample side of the twin pan balance. The water sorption and desorption were studied as a function of relative humidity (RH) at 25° C. In 10% RH increments, the relative humidity was increased from 5% RH to 95% RH and then decreased back to 5%. […] Data analysis was performed using Universal Analysis 2000 Version 4.7A (TA Instruments, New Castle, Del.) for TA DVS runs and Microsoft Excel for SMS DVS runs.

[1] = for Mono-BSA Form I up to 85% RH

SMILES	water absorbed (DVS)	hygroscopicity (DVS analysis), in words [1]	water uptake (DVS) (90% RH at 25° C.)	water uptake (DVS) (85% RH at 25° C.)	hygroscopicity (DVS analysis), in words (above 85% RH, led to deliquescence)
Nc1cncc(-c2cn3ccnc3c(Nc3ccc(N4CCN(C5COC5)CC4)cc3)n2)n1 [Compound I Form I, 6-(6-aminopyrazin-2-yl)-N-(4-(4-(oxetan-3-yl)piperazin-1-yl)phenyl)imidazo[1,2-a]pyrazin-8-amine]	about 0.8 wt. %	slightly hygroscopic			
Nc1cncc(-c2cn3ccnc3c(Nc3ccc(N4CCN(C5COC5)CC4)cc3)n2)n1 [Compound I Form II, 6-(6-aminopyrazin-2-yl)-N-(4-(4-(oxetan-3-yl)piperazin-1-yl)phenyl)imidazo[1,2-a]pyrazin-8-amine]	about 2 wt. %	slightly hygroscopic			
Nc1cncc(-c2cn3ccnc3c(Nc3ccc(N4CCN(C5COC5)CC4)cc3)n2)n1 [Compound I Form V, 6-(6-aminopyrazin-2-yl)-N-(4-(4-(oxetan-3-yl)piperazin-1-yl)phenyl)imidazo[1,2-a]pyrazin-8-amine]	about 0.5 wt. %	slightly hygroscopic			
Nc1cncc(-c2cn3ccnc3c(Nc3ccc(N4CCN(C5COC5)CC4)cc3)n2)n1 [Compound I Hemi-Succinate Form I, 6-(6-aminopyrazin-2-yl)-N-(4-(4-(oxetan-3-yl)piperazin-1-yl)phenyl)imidazo[1,2-a]pyrazin-8-amine]		slightly hygroscopic	about 0.4 wt. %		
Nc1cncc(-c2cn3ccnc3c(Nc3ccc(N4CCN(C5COC5)CC4)cc3)n2)n1 [Compound I Mono-BSA Form I, 6-(6-aminopyrazin-2-yl)-N-(4-(4-(oxetan-3-yl)piperazin-1-yl)phenyl)imidazo[1,2-a]pyrazin-8-amine]	> 15 wt. %	slightly hygroscopic		about 1.5 wt. %	very hygroscopic
Nc1cncc(-c2cn3ccnc3c(Nc3ccc(N4CCN(C5COC5)CC4)cc3)n2)n1 [Compound I Mono-HCl salt Form II, 6-(6-aminopyrazin-2-yl)-N-(4-(4-(oxetan-3-yl)piperazin-1-yl)phenyl)imidazo[1,2-a]pyrazin-8-amine]		very hygroscopic	about 16 wt. %		
Nc1cncc(-c2cn3ccnc3c(Nc3ccc(N4CCN(C5COC5)CC4)cc3)n2)n1 [Compound I Sesqui-Adipate Form I, 6-(6-aminopyrazin-2-yl)-N-(4-(4-(oxetan-3-yl)piperazin-1-yl)phenyl)imidazo[1,2-a]pyrazin-8-amine]		moderately hygroscopic	about 2.1 wt. %		
